In patent US5157052A, “Method for inhibiting IgE production” (priority 1990, dated 1992):

System: Thy 1
Experiment: Splenocyte cell surface density/distribution (FACS): Thy 1
Type: in vivo, mouse (Balb/c female)
Protocol: Another (Group B) is injected with 20 μg (±) methyl 11α,16-dihydroxy-16-methyl-9-oxoprosta-5Z,13E-dien-1-oate as in Example 13. […] A 3 cm incision is made with a scalpel above the left hip, and the spleen is cut free from adjoining tissue and placed in a 100 mn plastic culture dish containing 10 ml PBS. The splenic cells are then made into a suspension, by rubbing the spleens between the rough, frosted ends of microscope slides repeatedly until the only remaining particulate matter is connective tissue. Cells are transferred to a 15 ml conical polystyrene tube and centrifuged in a centrifuge at 1200 rpm for 5 minutes. The supernatant is discarded by aspiration and the cell pellet is resuspended in 10 ml PBS, then centrifuged at 1200 rpm for 5 minutes. The supernatant is aspirated and the cell pellet is resuspended in 15 mM Tris, 140 mM Ammonium Chloride, to lyse red blood cells. After incubating at room temperature for 10 minutes the cell suspension is centrifuged at 1200 rpm for 10 minutes. The supernatant is discarded and the cell pellet is resuspended in 10 ml FACS Buffer (PBS containing 0.1% BSA and 0.1% Sodium Azide). The cell suspension is filtered through sterile glass wool plugged in the top of a pasteur pipet. Cells in the flow through are counted using a hemacytometer, then the cell suspension is centrifuged at 1200 rpm for 5 minutes. The supernatant is discarded and the cell pellet is resuspended in a volume of FACS Buffer that will yield 4×10^7 cells/ml. 10 μl (4×10^5 cells) is added to each well of a 96-well V-bottom plate. 25 μl of diluted monoclonal antibody directed against splenocyte cell surface proteins is added to each well: Major Histocompatability Complex (MHC) Class II (M5114, ATCC, Rockville Md.), MHC Class I (M1/42, ATCC), Anti-IgD (JA12.5, ATCC, Rockville, Md.), Thymocyte (Thy)-1 (JIJ, ATCC), B220 (14.8, ATCC), Kappa light chain (187, ATCC), IL-2 Receptor (7D4, ATCC), Lyt-1 (7.313, ATCC) and CD23 (biotinylated B3B4) and incubated on ice for 30 minutes. 100 μl 10% BSA 0.1% sodium azide is added to each well, then the plates are centrifuged at 1200 rpm for 10 minutes. The liquid is removed by aspiration and the cell pellets are resuspended in 100 μl FACS Buffer, and centrifuged at 1200 rpm for 5 minutes. […] Samples are transferred to individual tubes and 10,000 cells are analyzed. Using the Lysis software (Becton Dickinson, Mountain View, Calif.) the mean channel log fluorescence and percent positive cells are determined for the entire cell population. […]

SMILES: CCCCC(C)(O)C/C=C/[C@H]1[C@H](O)CC(=O)[C@@H]1C/C=C\CCCC(=O)OC (mixture of isomers) [(±) methyl 11α,16-dihydroxy-16-methyl-9-oxoprosta-5Z,13E-dien-1-oate]
- Percentage Positive Cells (anti-IgD stimulated mice, 20 μg days 3 and 4, day 7 (PBS 14.3)): 23 ± 10%
- Mean Channel Log Fluorescence (anti-IgD stimulated mice, 20 μg days 3 and 4, day 7 (PBS 97)): 98 ± 0
- Percentage Positive Cells (unstimulated mice, 20 μg (PBS 9.3)): 25.4 ± 3%
- Mean Channel Log Fluorescence (unstimulated mice, 20 μg (PBS 91)): 92 ± 3
